Data published in patent publication US20170056351A1, “COMPOSITION FOR INDUCING TUMOR IMMUNITY” (UNIVERSITY OF OCCUPATIONAL AND ENVIRONMENTAL HEALTH, JAPAN, priority 2014, published 2017).

Tests used:
C6 cells = test: Intracellular level of 5-ALA-induced PpIX by flow cytometric analysis, C6; assay type: cell-based, rat; details: 1 mM 5-ALA for 4 hours, relative to 5-ALA-not-treated cells, average±SE
Experimental: Two types of rat glioma cell lines (9L and C6) and human glioma cell lines (U251 and T98G) were used. Before use, 9L and T98G were cultured in RPMI-1640 at 37° C. for several days, whereas C6 and U251 were cultured in 10% FBS-added Dulbecco's modified Eagle's medium (DMEM) at 37° C. for several days. These cell lines were maintained at 37° C. in 5% CO2 in a humidified incubator. The cells were subcultured at an exponential growth phase thereof, using 0.05% trypsin solution containing 0.5 mM ethylenediamine tetraacetate. 70% confluent cells were used in the subsequent experiments. […]
The cells were seeded on a 100-mm culture dish, and were then cultured. […] Immediately after the recovery, the cells were re-suspended in cold PBS/FBS, and were then analyzed using a flow cytometer (EC800; Sony Biotechnology, Tokyo, Japan). Generally, 30,000 cells contained in each sample were evaluated. Using 488-nm argon ion laser, fluorescence was excited from intracellular PpIX, and the fluorescence was then detected using a 640/30 nm band-pass filter. […] The flow cytometric data were analyzed using FlowJo (Tree Star Inc., Ashland, Oreg., USA). The mean fluorescence intensity (MFI) of PpIX fluorescence in the 5-ALA-treated cells, with respect to that of 5-ALA-not-treated cells, was calculated for each cell line.

9L gliosarcoma cells = test: In vivo radiosensitizing effect of ALA with multiple doses of ionizing radiation, tumor growth in rat subcutaneous tumor model
Experimental: As experimental animals, inbred male Fischer 344 rats (8 week old) (SLC, Inc. (Hamamatsu, Japan)) were used and were inoculated with 9L gliosarcoma cells. The inoculation was carried out in accordance with the procedures described in the following publications: Yamamoto J, Hirano T, Li S, Koide M, Kohno E, Inenaga C, et al.: Selective accumulation and strong photodynamic effects of a new photosensitizer, ATX-S10.Na (II), in experimental malignant glioma. Int J Oncol 27: 1207-13, 2005; Yamamoto J, Yamamoto S, Hirano T, Li S, Koide M, Kohno E, et al.: Monitoring of singlet oxygen is useful for predicting the photodynamic effects in the treatment for experimental glioma. Clin Cancer Res 12: 7132-9, 2006. In short, 9L gliosarcoma cells (1×10^6 cells) were transplanted into the skin on the dorsal side of each Fischer 344 rat, so as to produce a rat subcutaneous tumor model.
As described above, 9L gliosarcoma cells were inoculated into inbred Fischer 344 rats. […] Moreover, according to other previous studies, it had been reported that the dose of ALA by a single intravenous injection is 100 to 500 mg/kg body weight in the photodynamic therapy (PDT) using rodents (Yamamoto J, Yamamoto S, Hirano T, Li S, Koide M, Kohno E, et al.: Monitoring of singlet oxygen is useful for predicting the photodynamic effects in the treatment for experimental glioma. Clin Cancer Res 12:7132-9, 2006; Abels C, Heil P, Dellian M, Kuhnle G E, Baumgartner R, Goetz A E: In vivo kinetics and spectra of 5-aminolaevulinic acid-induced fluorescence in an amelanotic melanoma of the hamster. Br J Cancer 70: 826-33, 1994; Abels C, Fritsch C, Bolsen K, Szeimies R M, Ruzicka T, Goerz G, et al.: Photodynamic therapy with 5-aminolaevulinic acid-induced porphyrins of an amelanotic melanoma in vivo. J Photochem Photobiol B 40: 76-83, 1997; Bozzini G, Colin P, Betrouni N, Maurage C A, Leroy X, Simonin S, et al.: Efficiency of 5-ALA mediated photodynamic therapy on hypoxic prostate cancer: a preclinical study on the Dunning R3327-AT2 rat tumor model. Photodiagnosis Photodyn Ther 10: 296-303, 2013.). Accordingly, in the present study, the present inventors have determined the maximum dose of ionizing radiation to be 10 Gy, and the maximum dose of ALA to be 500 mg/kg body weight. […] Multiple intravenous injections into the caudal vein of rats had been technically difficult, but according to the experience of the present inventors, at maximum 5 times of injections had been possible. Accordingly, the present inventors have determined an optimal ionizing irradiation schedule, in which ionizing irradiation at a dose of 2 Gy/day and ALA multiple-dose administration at a dose of 100 mg/kg body weight/day were carried out for 5 consecutive days. After the subcutaneous tumor had grown to a size of 6 to 8 mm in diameter, the rats were randomly divided into four groups, and were then treated as follows:
control group (without treatments) (n=5); ALA multiple-dose administration group (n=5); ionizing radiation multiple-dose application group (RT) (n=7); and ALA multiple-dose administration+ionizing radiation multiple-dose application group. (5-ALA+RT) (n=7).
In a group to which only ALA was administered, only ALA (100 mg/kg) was administered to rats via caudal vein for 5 consecutive days. In a multiple-dose application group involving only ionizing radiation, rats were anesthetized and were then irradiated with an ionizing radiation of 2 Gy/day for 5 consecutive days (a total of 10 Gy). In an ALA multiple-dose administration+ionizing radiation multiple-dose application group, for 5 consecutive days, rats were intravenously administered with ALA (100 mg/kg), then 3 hours later, the rats were anesthetized, and an ionizing radiation of 2 Gy/day was applied to the subcutaneous tumor thereof in a dark place (a total of 10 Gy). Ionizing radiation was applied at a rate of 0.65 Gy/min, using an X-ray irradiation apparatus (MBR-1520R; HITACHI Engineering & Service Co., Ltd., Japan). […]

With NCC(=O)CCC(=O)O [ALA, 5-aminolevulinic acid] the “relative MFI of PpIX fluorescence” value (C6 cells) was 20.2±0.56, the “mean tumor growth inhibitory rate” value (9L gliosarcoma cells; 16th day after treatment, ALA multiple-dose + ionizing radiation multiple-dose group compared with ionizing radiation multiple-dose group) was 42.5% and the “mean tumor volume, Day 0” value (9L gliosarcoma cells; ALA alone 100 mg/kg i.v. for 5 consecutive days, Day 0, mean ± SE, n = 5) was 143.9 ± 17.4 mm^3. For the same compound, the “mean tumor volume, Day 8” value (9L gliosarcoma cells; ALA alone 100 mg/kg i.v. for 5 consecutive days, Day 8, mean ± SE, n = 5) was 865.4 ± 107.2 mm^3, the “mean tumor volume, Day 10” value (9L gliosarcoma cells; ALA alone 100 mg/kg i.v. for 5 consecutive days, Day 10, mean ± SE, n = 5) was 1403 ± 224.3 mm^3 and the “mean tumor volume, Day 12” value (9L gliosarcoma cells; ALA alone 100 mg/kg i.v. for 5 consecutive days, Day 12, mean ± SE, n = 5) was 1842.6 ± 218.8 mm^3. For the same compound, the “mean tumor volume, Day 14” value (9L gliosarcoma cells; ALA alone 100 mg/kg i.v. for 5 consecutive days, Day 14, mean ± SE, n = 5) was 2276.3 ± 192.8 mm^3, the “mean tumor volume, Day 16” value (9L gliosarcoma cells; ALA alone 100 mg/kg i.v. for 5 consecutive days, Day 16, mean ± SE, n = 5) was 2869.4 ± 267.9 mm^3 and the “growth of the tumor in comparison to the control group” value (9L gliosarcoma cells; ALA multiple-dose administration alone, 16th day, p=0.0448) was “inhibited”.
